Assay results reported in article PMC9298526, “RapD Is a Multimeric Calcium-Binding Protein That Interacts With the Rhizobium leguminosarum Biofilm Exopolysaccharide, Influencing the Polymer Lengths” (Frontiers in Microbiology, 2022).
Where “and” joins values, the source holds several entries; their conditions need not be identical. Equal entries are not always repeated.

T1: RapD (Rhizobium johnstonii, UniProt Q1MFT2)
T1 construct: gene RL2702
T1 sequence (Q1MFT2 1-277): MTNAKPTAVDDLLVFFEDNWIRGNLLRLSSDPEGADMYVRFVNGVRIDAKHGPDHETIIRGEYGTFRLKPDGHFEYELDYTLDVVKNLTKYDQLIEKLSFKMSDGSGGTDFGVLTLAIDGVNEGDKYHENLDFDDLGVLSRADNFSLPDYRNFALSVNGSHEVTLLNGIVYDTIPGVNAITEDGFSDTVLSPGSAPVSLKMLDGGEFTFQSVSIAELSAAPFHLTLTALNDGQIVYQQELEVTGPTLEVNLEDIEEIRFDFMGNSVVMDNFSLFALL


How the values were obtained:
RapD = biological target: T1, RapD; assay: binding inhibition assay (ELISA): RapD to immobilized EPS; details: with calcium (TBS, 1 mM CaCl2); room temperature; galactose 0-300 mM preincubated with RapD; proteinase K treated Rlv 3841 EPS immobilized; indirect competition read-out
[1] = biological target: the molecule itself; assay: SEC with 90° static light scattering (SLS) and refractometer; Superdex 200, 100 ul of RapD at 1 mg/ml pre-incubated with 1.25 mM CaCl2, 20 mM Tris-HCl, 0.15 M NaCl, pH 8, 0.4 ml/min, 20°C, BSA as standard

Row | Molecule | partial inhibition of EPS binding (RapD) | stoichiometry N [1]
1 | OC[C@H]1OC(O)[C@H](O)[C@@H](O)[C@H]1O (some centres unmarked) [galactose] | RapD interaction with the EPS was partially inhibited in the presence of high concentrations of galactose | 
2 | Recombinant full-length RapD (natural protein, Rhizobium leguminosarum bv. viciae 3841, UniProt Q1MFT2 1-277, looked up, N-terminal Ra/CHDL domain (aa 1-122) and C-terminal region (aa 123-277); Cloned NdeI-NotI into pET-22b; The protein was decalcified with EGTA before calcium was added; also called Apo-RapD; RapD-Apo; source: E. coli BL21 (DE3) carrying pET22brapD, purified (Ni-NTA HiTrap Chelating, dialysis against 10 mM EGTA, Superdex 200); not shown: His tag (from the vector pET-22b)) MTNAKPTAVDDLLVFFEDNWIRGNLLRLSSDPEGADMYVRFVNGVRIDAKHGPDHETIIRGEYGTFRLKPDGHFEYELDYTLDVVKNLTKYDQLIEKLSFKMSDGSGGTDFGVLTLAIDGVNEGDKYHENLDFDDLGVLSRADNFSLPDYRNFALSVNGSHEVTLLNGIVYDTIPGVNAITEDGFSDTVLSPGSAPVSLKMLDGGEFTFQSVSIAELSAAPFHLTLTALNDGQIVYQQELEVTGPTLEVNLEDIEEIRFDFMGNSVVMDNFSLFALL |  | 3 and 2
